Laboratory results reported in patent US20240316215A1, “CONTROLLED DRUG RELEASE MATERIAL” (ADURO MATERIAL AB, priority 2021, published 2024).
pEC50: −log10 of the molar value.

Columns and labels:
breast cancer cell lines = details: read-out: EC50 previously reported; cited from earlier work
[1] = tested on: MCF-7 human breast cancer cells; experiment: cells
Source text: Cell viability studies are typically conducted on cells that are actively dividing, in the linear range of logarithmic division. However, tumors are typically dense, highly populated 3-dimensional cultures.

NC(=O)NO [hydroxyurea]
pEC50 (breast cancer cell lines): ~3.70 | pEC50 ([1]; MCF7, MCF-7 cells cultured at 1×10^4/well): 3.70 | pEC50 ([1]; MCF7, MCF-7 cells cultured at 2×10^4/well): 3.40 | pEC50 ([1]; MCF7, MCF-7 cells cultured at 4×10^4/well): 3.10 | pEC50 ([1]; MCF7, lowest cell concentration, 1×10^4 cells/well): 3.70
